Reference: patent US7563825B1, “Modulation of beta-catenin coactivator interactions to effect stem cell growth or differentiation” (Choongwae Pharma Corporation, priority 2005, dated 2009)
“Also recorded” adds a separate entry of the source.

What was measured:
β-catenin/CBP = β-catenin/CBP (Homo sapiens, UniProt Q92793); conditions: CBP arm of the Wnt pathway; cited from earlier work
C2C12 myoblasts = assay: Differentiation of C2C12 myoblasts; type: cell-based; conditions: 10 μM ICG-001, compared to differentiation medium or growth medium (FIGS. 3, 4)
Procedure: FIG. 4 illustrates that differentiation of C2C12 myeloblasts is induced by 10 μM ICG-001 as compared to differentiation medium.
(§1) From our chemogenomic studies with the small molecule inhibitor of the β-catenin/CBP interaction and additional gene expression profiling, we have developed a model that describes how differential coactivator usage in Wnt signaling controls proliferation vs. differentiation. The critical feature of this model is that the CBP arm (FIG. 2, left side) of the pathway is essential for proliferation without differentiation, for example in cancer or stem cells, whereas the p300 arm (FIG. 2, right side) is critical for differentiation, with limited proliferation.

3T3-L1 preadipocytes = assay: Differentiation of 3T3-L1 preadipocytes; type: cell-based
Description: as §1

cancer cells = conditions: cited from earlier work

β-catenin/CBP, sequence (Q92793 whole entry): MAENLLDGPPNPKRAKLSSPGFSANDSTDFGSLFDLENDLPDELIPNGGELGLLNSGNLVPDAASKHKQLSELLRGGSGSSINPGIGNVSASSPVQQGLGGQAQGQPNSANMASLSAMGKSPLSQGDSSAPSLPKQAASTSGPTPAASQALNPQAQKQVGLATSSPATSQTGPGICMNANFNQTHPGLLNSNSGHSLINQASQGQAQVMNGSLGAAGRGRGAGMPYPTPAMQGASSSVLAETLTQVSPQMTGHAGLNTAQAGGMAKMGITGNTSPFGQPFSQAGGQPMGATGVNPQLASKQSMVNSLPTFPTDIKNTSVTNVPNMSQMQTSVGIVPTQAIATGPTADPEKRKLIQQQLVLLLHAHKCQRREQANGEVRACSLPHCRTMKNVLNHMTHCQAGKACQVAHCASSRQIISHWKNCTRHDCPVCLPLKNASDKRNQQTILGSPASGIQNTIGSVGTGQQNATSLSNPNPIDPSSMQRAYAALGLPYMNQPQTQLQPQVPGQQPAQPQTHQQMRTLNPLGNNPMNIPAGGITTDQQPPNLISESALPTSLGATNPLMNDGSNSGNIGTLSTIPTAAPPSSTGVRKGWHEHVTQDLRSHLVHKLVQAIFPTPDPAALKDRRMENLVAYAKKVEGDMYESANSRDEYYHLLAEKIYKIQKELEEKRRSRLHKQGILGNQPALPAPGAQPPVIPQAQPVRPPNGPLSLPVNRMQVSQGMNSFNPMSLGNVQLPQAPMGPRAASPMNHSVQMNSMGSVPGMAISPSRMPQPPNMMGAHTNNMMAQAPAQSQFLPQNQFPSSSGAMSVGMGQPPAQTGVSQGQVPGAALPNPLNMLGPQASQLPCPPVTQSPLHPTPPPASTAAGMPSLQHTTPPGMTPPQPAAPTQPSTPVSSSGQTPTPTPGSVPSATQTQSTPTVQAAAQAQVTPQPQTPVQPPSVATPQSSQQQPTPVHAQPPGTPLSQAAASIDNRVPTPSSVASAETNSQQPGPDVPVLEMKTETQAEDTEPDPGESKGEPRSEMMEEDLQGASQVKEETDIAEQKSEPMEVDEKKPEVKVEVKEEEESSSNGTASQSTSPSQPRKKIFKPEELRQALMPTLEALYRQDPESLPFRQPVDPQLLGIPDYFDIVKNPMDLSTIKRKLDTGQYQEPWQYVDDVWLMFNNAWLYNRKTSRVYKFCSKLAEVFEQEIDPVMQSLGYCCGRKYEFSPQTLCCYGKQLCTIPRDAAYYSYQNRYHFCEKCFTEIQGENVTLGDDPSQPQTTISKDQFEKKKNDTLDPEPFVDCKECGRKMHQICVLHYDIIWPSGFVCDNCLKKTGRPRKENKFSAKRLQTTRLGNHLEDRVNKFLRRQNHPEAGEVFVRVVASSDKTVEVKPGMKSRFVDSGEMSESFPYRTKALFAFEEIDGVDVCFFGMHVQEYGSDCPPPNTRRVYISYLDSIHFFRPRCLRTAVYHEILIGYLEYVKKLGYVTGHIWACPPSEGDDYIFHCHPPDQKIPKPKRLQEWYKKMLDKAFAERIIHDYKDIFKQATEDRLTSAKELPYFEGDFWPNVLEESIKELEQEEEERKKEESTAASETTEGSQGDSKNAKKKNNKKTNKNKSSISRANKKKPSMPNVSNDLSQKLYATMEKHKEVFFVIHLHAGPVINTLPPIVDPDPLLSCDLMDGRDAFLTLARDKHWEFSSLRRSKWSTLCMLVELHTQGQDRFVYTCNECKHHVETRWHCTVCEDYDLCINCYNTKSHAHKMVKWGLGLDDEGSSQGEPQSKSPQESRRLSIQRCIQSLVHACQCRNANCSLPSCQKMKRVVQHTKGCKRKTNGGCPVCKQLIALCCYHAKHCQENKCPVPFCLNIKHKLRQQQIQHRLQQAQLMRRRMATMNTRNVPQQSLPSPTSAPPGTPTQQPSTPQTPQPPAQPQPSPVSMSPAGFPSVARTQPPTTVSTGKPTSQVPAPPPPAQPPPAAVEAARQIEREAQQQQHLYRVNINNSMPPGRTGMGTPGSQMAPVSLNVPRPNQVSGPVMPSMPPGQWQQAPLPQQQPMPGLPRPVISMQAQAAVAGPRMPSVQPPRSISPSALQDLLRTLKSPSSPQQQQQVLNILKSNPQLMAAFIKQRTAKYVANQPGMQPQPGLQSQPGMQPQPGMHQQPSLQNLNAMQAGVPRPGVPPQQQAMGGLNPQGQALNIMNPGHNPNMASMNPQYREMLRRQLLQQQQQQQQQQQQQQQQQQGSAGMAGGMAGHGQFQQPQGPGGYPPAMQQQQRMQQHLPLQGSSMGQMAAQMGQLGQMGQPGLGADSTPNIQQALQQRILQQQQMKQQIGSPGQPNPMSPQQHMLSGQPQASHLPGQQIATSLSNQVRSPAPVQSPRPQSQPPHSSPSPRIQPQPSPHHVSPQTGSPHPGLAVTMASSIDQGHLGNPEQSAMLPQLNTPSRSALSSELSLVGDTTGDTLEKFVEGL

O=C1[C@H](Cc2ccc(O)cc2)N2C(=O)CCN(C(=O)NCc3ccccc3)[C@H]2CN1Cc1cccc2ccccc12 [ICG-001]
inhibition of β-catenin/CBP dependent transcription (β-catenin/CBP): specifically inhibits
differentiation of C2C12 myeloblasts (myoblasts) (C2C12 myoblasts): induces the differentiation; also recorded: induced; also recorded: inducing the differentiation
differentiation of non-tumorigenic precursor cells, 3T3-L1 preadipocytes (3T3-L1 preadipocytes): inducing the differentiation
programmed cell death in cancer cells (cancer cells): selectively inducing programmed cell death
